Results from ChEMBL document CHEMBL1201862, “PubChem BioAssay data set” (2004).
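Compound exposure: 48 hours, 5 concentrations, 96-well plates. Abbreviation: GI50, concentration required for 50% inhibition of growth.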 The source made the active and inactive calls. Cut-off read from the data, not from the text of the source: active = GI50 up to about 1.1 µM and inactive = higher.

Assays:
Experiment in all cases: NCI-60 cell line screen, 48 h
786-0 = system: 786-0
A498 = system: A498
A549 = system: A549
ACHN = system: ACHN
BT-549 = system: BT-549
CAKI-1 = system: CAKI-1
CCRF-CEM = system: CCRF-CEM
COLO 205 = system: COLO 205
DU-145 = system: DU-145
EKVX = system: EKVX
HCC 2998 = system: HCC 2998
HCT-116 = system: HCT-116
HCT-15 = system: HCT-15
HL-60 = system: HL-60
HOP-62 = system: HOP-62
HOP-92 = system: HOP-92
HT-29 = system: HT-29
Hs-578T = system: Hs-578T
IGROV-1 = system: IGROV-1
K562 = system: K562
KM12 = system: KM12
LOX IMVI = system: LOX IMVI
M14 = system: M14
MCF7 = system: MCF7
MDA-MB-231 = system: MDA-MB-231
MDA-MB-435 = system: MDA-MB-435
MDA-N = system: MDA-N
MOLT-4 = system: MOLT-4
Malme-3M = system: Malme-3M
NCI-H226 = system: NCI-H226
NCI-H23 = system: NCI-H23
NCI-H460 = system: NCI-H460
NCI-H522 = system: NCI-H522
NCI/ADR-RES = system: NCI/ADR-RES
OVCAR-3 = system: OVCAR-3
OVCAR-4 = system: OVCAR-4
OVCAR-5 = system: OVCAR-5
OVCAR-8 = system: OVCAR-8
PC-3 = system: PC-3
RXF 393 = system: RXF 393
SF-268 = system: SF-268
SF-295 = system: SF-295
SF-539 = system: SF-539
SK-MEL-28 = system: SK-MEL-28
SK-MEL-2 = system: SK-MEL-2
SK-MEL-5 = system: SK-MEL-5
SK-OV-3 = system: SK-OV-3
SN12C = system: SN12C
SNB-19 = system: SNB-19
SNB-75 = system: SNB-75
SW-620 = system: SW-620
T47D = system: T47D
TK-10 = system: TK-10
U-251 = system: U-251
UACC-257 = system: UACC-257
UACC-62 = system: UACC-62
UO-31 = system: UO-31
RPMI-8226 = system: RPMI-8226
SR = system: SR

With `Cc1ccc(/C=C2\CCCC(CN(C)C)C2=O)cc1` (stereo unspecified) the GI50 (786-0) was 1.63 µM (inactive), the GI50 (A498) was 14.3 µM (inactive) and the GI50 (A549) was 15.6 µM (inactive). The GI50 (ACHN) was 2.24 µM (inactive), the GI50 (BT-549) was 2.49 µM (inactive) and the GI50 (CAKI-1) was 1.55 µM (inactive). The GI50 (CCRF-CEM) was 1.26 µM (inactive), the GI50 (COLO 205) was 1.73 µM (inactive) and the GI50 (DU-145) was 10.2 µM (inactive). The GI50 (EKVX) was 17.5 µM (inactive), the GI50 (HCC 2998) was 14.2 µM (inactive) and the GI50 (HCT-116) was 1.69 µM (inactive). The GI50 (HCT-15) was 1.97 µM, the GI50 (HL-60) was 0.841 µM (active) and the GI50 (HOP-62) was 20.4 µM (inactive). The GI50 (HOP-92) was 1.88 µM (inactive), the GI50 (HT-29) was 1.69 µM (inactive) and the GI50 (Hs-578T) was 3.21 µM (inactive). For the same compound, the GI50 (IGROV-1) was 1.96 µM (inactive), the GI50 (K562) was 1.66 µM (inactive) and the GI50 (KM12) was 1.55 µM (inactive). The GI50 (LOX IMVI) was 1.77 µM (inactive), the GI50 (M14) was 1.81 µM (inactive) and the GI50 (MCF7) was 0.525 µM (active). For the same compound, the GI50 (MDA-MB-231) was 1.66 µM (inactive), the GI50 (MDA-MB-435) was 1.85 µM (inactive) and the GI50 (MDA-N) was 1.97 µM (inactive). The GI50 (MOLT-4) was 2.28 µM (inactive), the GI50 (Malme-3M) was 1.91 µM (inactive) and the GI50 (NCI-H226) was 2.56 µM (inactive). For the same compound, the GI50 (NCI-H23) was 2.24 µM (inactive), the GI50 (NCI-H460) was 3.48 µM (inactive) and the GI50 (NCI-H522) was 0.0951 µM (active). The GI50 (NCI/ADR-RES) was 3.32 µM (inactive), the GI50 (OVCAR-3) was 1.76 µM (inactive) and the GI50 (OVCAR-4) was 2.02 µM (inactive). For the same compound, the GI50 (OVCAR-5) was 15.8 µM (inactive), the GI50 (OVCAR-8) was 3.04 µM (inactive) and the GI50 (PC-3) was 3.33 µM (inactive). The GI50 (RXF 393) was 1.79 µM (inactive), the GI50 (SF-268) was 2.06 µM (inactive) and the GI50 (SF-295) was 17.4 µM (inactive). For the same compound, the GI50 (SF-539) was 2.84 µM (inactive), the GI50 (SK-MEL-28) was 1.95 µM (inactive) and the GI50 (SK-MEL-2) was 4.76 µM (inactive). For the same compound, the GI50 (SK-MEL-5) was 3.51 µM (inactive), the GI50 (SK-OV-3) was 13.6 µM (inactive) and the GI50 (SN12C) was 1.91 µM (inactive). For the same compound, the GI50 (SNB-19) was 16.4 µM (inactive), the GI50 (SNB-75) was 8.13 µM (inactive) and the GI50 (SW-620) was 1.53 µM (inactive). The GI50 (T47D) was 1.75 µM (inactive), the GI50 (TK-10) was 2.77 µM (inactive) and the GI50 (U-251) was 13.5 µM (inactive). For the same compound, the GI50 (UACC-257) was 1.88 µM (inactive), the GI50 (UACC-62) was 2.03 µM (inactive) and the GI50 (UO-31) was 1.69 µM (inactive).
With `N#Cc1nc(/C=C/c2nc(C#N)c(N)o2)oc1N` the GI50 (786-0) was > 10 µM (inactive), the GI50 (A549) was > 10 µM (inactive) and the GI50 (ACHN) was > 10 µM (inactive). For the same compound, the GI50 (BT-549) was > 10 µM (inactive), the GI50 (CAKI-1) was > 10 µM (inactive) and the GI50 (CCRF-CEM) was > 10 µM (inactive). The GI50 (COLO 205) was > 10 µM (inactive), the GI50 (DU-145) was > 10 µM (inactive) and the GI50 (EKVX) was > 10 µM (inactive). For the same compound, the GI50 (HCC 2998) was > 10 µM (inactive), the GI50 (HCT-116) was > 10 µM (inactive) and the GI50 (HCT-15) was greater than 10 µM. For the same compound, the GI50 (HL-60) was > 10 µM (inactive), the GI50 (HOP-62) was > 10 µM (inactive) and the GI50 (HOP-92) was > 10 µM (inactive). For the same compound, the GI50 (HT-29) was > 10 µM (inactive), the GI50 (Hs-578T) was > 10 µM (inactive) and the GI50 (IGROV-1) was > 10 µM (inactive). The GI50 (K562) was > 10 µM (inactive), the GI50 (KM12) was > 10 µM (inactive) and the GI50 (LOX IMVI) was > 10 µM (inactive). For the same compound, the GI50 (M14) was > 10 µM (inactive), the GI50 (MCF7) was > 10 µM (inactive) and the GI50 (MDA-MB-231) was > 10 µM (inactive). For the same compound, the GI50 (MDA-MB-435) was > 10 µM (inactive), the GI50 (MDA-N) was > 10 µM (inactive) and the GI50 (Malme-3M) was > 10 µM (inactive). The GI50 (NCI-H226) was > 10 µM (inactive), the GI50 (NCI-H23) was > 10 µM (inactive) and the GI50 (NCI-H460) was > 10 µM (inactive). The GI50 (NCI-H522) was > 10 µM (inactive), the GI50 (NCI/ADR-RES) was > 10 µM (inactive) and the GI50 (OVCAR-4) was > 10 µM (inactive). For the same compound, the GI50 (OVCAR-8) was > 10 µM (inactive), the GI50 (PC-3) was > 10 µM (inactive) and the GI50 (RPMI-8226) was > 10 µM (inactive). The GI50 (RXF 393) was > 10 µM (inactive), the GI50 (SF-268) was > 10 µM (inactive) and the GI50 (SF-295) was > 10 µM (inactive). For the same compound, the GI50 (SF-539) was > 10 µM (inactive), the GI50 (SK-MEL-28) was > 10 µM (inactive) and the GI50 (SK-MEL-5) was > 10 µM (inactive). For the same compound, the GI50 (SK-OV-3) was > 10 µM (inactive), the GI50 (SN12C) was > 10 µM (inactive) and the GI50 (SNB-19) was > 10 µM (inactive). The GI50 (SNB-75) was > 10 µM (inactive), the GI50 (SR) was > 10 µM (inactive) and the GI50 (SW-620) was > 10 µM (inactive). For the same compound, the GI50 (T47D) was > 10 µM (inactive), the GI50 (TK-10) was > 10 µM (inactive) and the GI50 (UACC-257) was > 10 µM (inactive). The GI50 (UACC-62) was > 10 µM (inactive) and the GI50 (UO-31) was > 10 µM (inactive).
In the case of `Cc1cccc2c1[C@]13OC(C)[C@]4(C)CC5OC(=O)[C@@]1(C)[C@@H]5[C@]34C(=O)O2` (stereo partly specified), the GI50 (786-0) is reported as > 100 µM (inactive), the GI50 (A498) is reported as > 100 µM (inactive) and the GI50 (A549) is reported as > 100 µM (inactive). The GI50 (ACHN) was > 100 µM (inactive), the GI50 (BT-549) was > 100 µM (inactive) and the GI50 (CAKI-1) was > 100 µM (inactive). The GI50 (CCRF-CEM) was > 100 µM (inactive), the GI50 (COLO 205) was > 100 µM (inactive) and the GI50 (DU-145) was > 100 µM (inactive). For the same compound, the GI50 (EKVX) was > 100 µM (inactive), the GI50 (HCC 2998) was > 100 µM (inactive) and the GI50 (HCT-116) was > 100 µM (inactive). For the same compound, the GI50 (HCT-15) was greater than 100 µM, the GI50 (HL-60) was > 100 µM (inactive) and the GI50 (HOP-62) was > 100 µM (inactive). The GI50 (HT-29) was > 100 µM (inactive), the GI50 (Hs-578T) was > 100 µM (inactive) and the GI50 (IGROV-1) was > 100 µM (inactive). The GI50 (K562) was > 100 µM (inactive), the GI50 (KM12) was > 100 µM (inactive) and the GI50 (LOX IMVI) was > 100 µM (inactive). For the same compound, the GI50 (M14) was > 100 µM (inactive), the GI50 (MCF7) was > 100 µM (inactive) and the GI50 (MDA-MB-231) was > 100 µM (inactive). For the same compound, the GI50 (MDA-MB-435) was > 100 µM (inactive), the GI50 (MDA-N) was > 100 µM (inactive) and the GI50 (MOLT-4) was > 100 µM (inactive). For the same compound, the GI50 (Malme-3M) was > 100 µM (inactive), the GI50 (NCI-H226) was > 100 µM (inactive) and the GI50 (NCI-H23) was > 100 µM (inactive). For the same compound, the GI50 (NCI-H460) was > 100 µM (inactive), the GI50 (NCI-H522) was > 100 µM (inactive) and the GI50 (NCI/ADR-RES) was > 100 µM (inactive). For the same compound, the GI50 (OVCAR-3) was > 100 µM (inactive), the GI50 (OVCAR-5) was > 100 µM (inactive) and the GI50 (OVCAR-8) was > 100 µM (inactive). For the same compound, the GI50 (PC-3) was > 100 µM (inactive), the GI50 (RPMI-8226) was > 100 µM (inactive) and the GI50 (SF-268) was > 100 µM (inactive). For the same compound, the GI50 (SF-295) was > 100 µM (inactive), the GI50 (SF-539) was > 100 µM (inactive) and the GI50 (SK-MEL-28) was > 100 µM (inactive). For the same compound, the GI50 (SK-MEL-2) was > 100 µM (inactive), the GI50 (SK-MEL-5) was > 100 µM (inactive) and the GI50 (SK-OV-3) was > 100 µM (inactive). For the same compound, the GI50 (SN12C) was > 100 µM (inactive), the GI50 (SNB-19) was > 100 µM (inactive) and the GI50 (SNB-75) was > 100 µM (inactive). The GI50 (SR) was > 100 µM (inactive), the GI50 (SW-620) was > 100 µM (inactive) and the GI50 (T47D) was > 100 µM (inactive). The GI50 (TK-10) was > 100 µM (inactive), the GI50 (U-251) was > 100 µM (inactive) and the GI50 (UACC-257) was > 100 µM (inactive). For the same compound, the GI50 (UACC-62) was > 100 µM (inactive) and the GI50 (UO-31) was > 100 µM (inactive).
